Like-named read-outs stand apart in the source and are kept apart here.
Key:
human A3 receptors = molecular target: T1, human A3 receptors (Homo sapiens, UniProt P0DMS8); test: radioligand binding, displacement of specific [125I]AB-MECA binding at human A3 receptors expressed in HEK-293 cells; conditions: for inhibition at 10 µM: 10^-5 M; for Ki: [125I]AB-MECA; for inhibition at 100 µM: 10^-4 M
T1 construct: expressed in transfected cells; host or cells: HEK-293 cells (membranes)
T1 sequence (P0DMS8 1-318): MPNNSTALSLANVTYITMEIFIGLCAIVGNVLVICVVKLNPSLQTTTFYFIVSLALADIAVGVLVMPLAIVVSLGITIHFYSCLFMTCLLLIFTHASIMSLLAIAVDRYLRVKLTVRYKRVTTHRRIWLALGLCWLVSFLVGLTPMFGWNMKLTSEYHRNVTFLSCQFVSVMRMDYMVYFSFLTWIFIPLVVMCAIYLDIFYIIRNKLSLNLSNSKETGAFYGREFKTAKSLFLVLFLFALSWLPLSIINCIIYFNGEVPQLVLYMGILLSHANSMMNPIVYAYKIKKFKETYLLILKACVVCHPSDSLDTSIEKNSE
Experimental: A3 receptors expressed in HEK293 cells, in membranes, expressed as
binding displaced at 100 μM.

A2a receptors = molecular target: T2, A2a receptors (Rattus norvegicus, UniProt P30543); test: radioligand binding, displacement of specific [3H]CGS 21680 binding in rat striatal membranes; conditions: for inhibition at 100 µM: 10^-4 M
T2 construct: Displacement of specific [^3 H]; from tissue; host or cells: rat striatal membranes
T2 sequence (P30543 whole entry): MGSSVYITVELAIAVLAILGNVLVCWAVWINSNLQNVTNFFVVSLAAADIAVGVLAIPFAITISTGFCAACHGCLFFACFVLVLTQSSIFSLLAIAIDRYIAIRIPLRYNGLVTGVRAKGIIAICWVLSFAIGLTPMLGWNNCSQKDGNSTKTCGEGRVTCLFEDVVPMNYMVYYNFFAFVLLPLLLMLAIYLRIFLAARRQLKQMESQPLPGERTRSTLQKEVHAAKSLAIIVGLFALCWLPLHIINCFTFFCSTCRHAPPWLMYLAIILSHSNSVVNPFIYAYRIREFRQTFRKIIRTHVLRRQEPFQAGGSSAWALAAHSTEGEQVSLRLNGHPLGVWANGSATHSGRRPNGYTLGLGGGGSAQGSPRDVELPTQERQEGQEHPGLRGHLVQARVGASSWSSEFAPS
Experimental: ^b Displacement of specific [^3 H]
or as a percentage of specific binding displaced at 100 μM.

A1 receptors = molecular target: T3, A1 receptors (Rattus norvegicus, UniProt P25099); test: biochemical; format: binding
T3 sequence (P25099 1-326): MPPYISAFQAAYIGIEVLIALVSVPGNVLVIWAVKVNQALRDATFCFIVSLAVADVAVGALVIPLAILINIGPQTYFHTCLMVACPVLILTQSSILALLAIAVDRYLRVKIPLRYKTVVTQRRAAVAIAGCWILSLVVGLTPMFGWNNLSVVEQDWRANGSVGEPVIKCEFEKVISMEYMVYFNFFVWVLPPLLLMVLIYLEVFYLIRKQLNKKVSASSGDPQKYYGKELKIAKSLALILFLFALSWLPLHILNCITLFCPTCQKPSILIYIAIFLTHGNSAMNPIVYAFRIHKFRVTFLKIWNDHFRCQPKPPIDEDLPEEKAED
Experimental: ^a Displacement of specific [^3 H] PIA binding in rat brain
percentage of specific binding displaced at 100 μM.

[1] = Table 6, read-out: % inhibition hA3
[2] = Table 6, HEK-293 membranes, read-out: K2 (hA3)
[3] = Table 6, [3H]PIA, rat brain membranes, read-out: K2 (rA1)
[4] = Table 6, [3H]CGS 21680, rat striatal membranes, read-out: K2 (rA2a)
[5] = Table 7, read-out: % of specific binding displaced hA3
[6] = Table 7, [3H]CGS 21680, rat striatal membranes, read-out: Ki (rA2A)
[7] = Table 7, [3H]PIA, rat brain membranes, read-out: Ki (rA1)
[8] = Table 16, HEK membranes, read-out: Ki hA3

`COc1ccc(-c2cc(=O)c3c(O)cc(OC)cc3o2)cc1` [Compound 30, reference compound] showed an inhibition at 10 µM (human A3 receptors; [1]) of 69 ± 7%, an inhibition at 100 µM (A2a receptors; Table 6, read-out: displacement of specific binding rA2a) of less than 10% and an inhibition at 100 µM (A1 receptors; Table 6, 10^-4 M, read-out: displacement of specific binding rA1) of less than 10%.

Compound `COc1ccc(-c2cc(=O)c3c(OC)c(OC)c(OC)cc3o2)cc1` [Compound 31, reference compound] has a Ki (human A3 receptors; [2]) of 4.48 ± 0.14 µM and a Ki (A1 receptors; brain membranes, read-out: K2 (rA1)) of 1.29 ± 0.08 µM.

Work on `COc1c(O)cc2oc(-c3ccc(O)cc3)cc(=O)c2c1O` [Compound 32, hispidulin, reference compound] yielded an inhibition at 10 µM (human A3 receptors; [1]) of 63 ± 2%, a Ki (A2a receptors; striatal membranes, read-out: K2 (rA2a)) of 6.48 ± 0.65 µM and a Ki (A1 receptors; [3]) of 1.61 ± 0.29 µM.

Compound `COc1cc2oc(-c3ccc(O)cc3)cc(=O)c2c(O)c1OC` [Compound 33, cirsimaritin, reference compound] has a Ki (human A3 receptors; [2]) of 1.72 µM, a Ki (A2a receptors; [4]) of 3 ± 0.7 µM and a Ki (A1 receptors; [3]) of 1.2 µM.

For `CC(=O)Oc1cc(OC(C)=O)c2c(=O)c(OC(C)=O)c(-c3ccccc3)oc2c1` [Compound 34, 3,5,7-triacetoxyflavone], the Ki (human A3 receptors; [2]) was 17.5 ± 2 µM, the Ki (A2a receptors; [4]) was 56.5 ± 9.5 µM and the Ki (A1 receptors; [3]) was 11.6 ± 4.4 µM.

With `COc1ccc(-c2oc3cc(OC)cc(OC)c3c(=O)c2OC)cc1` [Compound 35, 3,4',5,7-tetramethoxyflavone] the Ki (human A3 receptors; [2]) was 3.37 ± 1.83 µM and the Ki (A1 receptors; [3]) was 1.07 µM.

With `COc1ccc(-c2oc3cc(OC)cc(OC)c3c(=O)c2OC)c(OC)c1` [Compound 38, 2',3,4',5,7-pentamethyloxyflavone] the Ki (human A3 receptors; [2]) was 2.65 µM, the Ki (A2a receptors; [4]) was 46.7 ± 2.7 µM and the Ki (A1 receptors; [3]) was 27.6 ± 7.5 µM.

`COc1cc(OC)c2c(=O)c(OC)c(-c3cc(OC)c(OC)c(OC)c3)oc2c1` [Compound 39, hexamethylmyricetin] was tested, and the Ki (human A3 receptors; [2]) was 16.2 ± 2.2 µM and the inhibition at 1 µM (A1 receptors; Table 6, 10^-6 M, read-out: displacement of specific binding rA1) was less than 10%.

With `O=c1cc(-c2ccccc2)oc2c1ccc1ccccc12` [Compound 43, α-naphthoflavone, reference compound] the inhibition at 10 µM (human A3 receptors; [5]) was 71 ± 2%, the Ki (A2a receptors; [6]) was 1.32 ± 0.43 µM and the Ki (A1 receptors; [7]) was 0.786 µM.

Compound `O=c1cc(-c2ccccc2)oc2ccc3ccccc3c12` [Compound 44, β-naphthoflavone, reference compound] has an inhibition at 10 µM (human A3 receptors; [5]) of 12 ± 1%, an inhibition at 100 µM (A2a receptors; Table 7, read-out: displacement of specific binding rA2A) of less than 10% and a Ki (A1 receptors; [7]) of 8.8 ± 3.6 µM.

For `CCn1c2c(c3cc4c(cc3c1=O)OCO4)C(=O)CCC2` [Compound 46, reference compound], the inhibition at 100 µM (human A3 receptors; [5]) was 19 ± 3%, the Ki (A2a receptors; [6]) was 6.98 ± 2.21 µM and the Ki (A1 receptors; [7]) was 7.59 ± 2.14 µM.

`COCCOC(=O)C1=C(C)NC(C)=C(C(=O)OC(C)C)C1c1cccc([N+](=O)[O-])c1` (stereo not drawn) [Compound 64, reference compound] was tested, and the Ki (human A3 receptors; Table 9, HEK membranes, read-out: Ki hA3) was 8.47 µM, the “greater affinity for A3 than A1 or A2a adenosine receptors” value (human A3 receptors; selectivity in words) was “greater affinity for A3 adenosine receptors than A1 or A2a adenosine receptors” and the Ki (A1 receptors; Table 9, [3H]PIA, rat brain membranes, read-out: Ki rA1) was 20.1 µM. For the same compound, the “greater affinity to A1 than A2a adenosine receptors” value (A1 receptors; selectivity in words) was “greater affinity to A1 adenosine receptors than A2a receptors”.

In the case of `COC(=O)C1=C(C)NC(C)=C(C(=O)OCCCN2CCC(c3ccccc3)(c3ccccc3)CC2)C1c1cccc([N+](=O)[O-])c1` (stereo not drawn) [Compound 65, reference compound], the “greater affinity for A3 than A1 or A2a adenosine receptors” value (human A3 receptors) is reported as “greater affinity for A3 adenosine receptors than A1 or A2a adenosine receptors” and the “greater affinity to A1 than A2a adenosine receptors” value (A1 receptors) is reported as “greater affinity to A1 adenosine receptors than A2a receptors”.

`COc1ccc(-c2ccncc2)cc1` [Compound 83] was tested, and the inhibition at 100 µM (human A3 receptors; Table 10, read-out: displacement of specific binding hA3) was less than 10% and the Ki (A2a receptors; Table 10, [3H]CGS 21680, rat striatal membranes, read-out: Ki rA2a) was 71 ± 29 µM.

In the case of `O=C(CCc1ccccc1)Nc1nc2ccc(Cl)cc2c2nc(-c3ccco3)nn12` [Compound 160], the Ki (human A3 receptors; [8]) is reported as 0.0297 ± 0.0077 µM and the Ki (A2a receptors; read-out: Ki rA2A) is reported as 0.0283 ± 0.0103 µM.

For `O=C(Cc1ccc([N+](=O)[O-])cc1)Nc1nc2ccc(Cl)cc2c2nc(-c3ccco3)nn12` [Compound 162], the Ki (human A3 receptors; [8]) was 0.0087 ± 0.00097 µM and the Ki (A1 receptors; Table 16, [3H]R-PIA, rat brain membranes, read-out: Ki rA1) was 0.028 µM.
